Earlier results in publication PMC12649378, “Comparative Pharmacokinetics and Safety of a Micellar Chrysin–Quercetin–Rutin Formulation: A Randomized Crossover Trial” (Antioxidants, 2025).
Structures can show the parent of a compound that is named as a salt.

Assays:
[1] = not given; remark: listed apart in the source

Compound	peak plasma levels (humans, 400 mg of unformulated chrysin) [ng/mL]	aqueous solubility [1] [µg/mL]	weak acidity (pH) [1]	circulating metabolite concentration exceeding parent chrysin concentrations (in vivo)
O=c1cc(-c2ccccc2)oc2cc(O)cc(O)c12 [chrysin, 5,7-dihydroxyflavone]	3 to 16	< 1	≈ 6.7	–
O=c1cc(-c2ccccc2)oc2cc(OS(=O)(=O)O)cc(O)c12 [chrysin sulfate]	–	–	–	~ 30 fold
